Measured values: paper PMC9408991, “Antitumor Effects of a New Retinoate of the Fungal Cytotoxin Illudin M in Brain Tumor Models” (International Journal of Molecular Sciences, 2022)
Like-named read-outs stand apart in the source and are kept apart here.

Experiments:
C6 astrocytoma cells = experiment: MTT cell viability assay, C6 astrocytoma; format: cell-based; settings: Rattus norvegicus, read-out: Inhibitory concentration IC50
Description: (§1) 518A2 (Department of Radiotherapy, Medical University of Vienna, Vienna, Austria) melanoma, KB-V1^Vbl (ACC-149) cervix carcinoma, MCF-7^Topo (ACC-115) breast carcinoma, HT29 (ACC-299) colon carcinoma were cultivated in Dulbecco’s Modified Eagle Medium (DMEM) supplemented with 10% fetal bovine serum and 1% antibiotic-antimycotic at 37 °C, 5% CO2, and 95% humidity. To keep MCF-7^Topo and KB-V1^Vbl cells resistant, the maximum-tolerated doses of topotecan or vinblastine were added to the cell culture medium 24 h after every passage. The human HL60 leukemia cells were obtained from the German National Resource Center for Biological Material (DSMZ), Braunschweig. Neuroectodermal stem cells NE-4C (ATCC No. CRL-2925), primary mouse astrocytes, rat glioma C6 (ATCC No. CCL-107) and human glioma U87 (ATCC No. HTB-14) were used.
(§2) Non-GBM cells (5 × 10^4 cells/mL, 100 µL/well) were grown in 96-well plates for 24 h. Then, they were treated with various concentrations of the test compounds or vehicle (DMSO, or EtOH) for 72 h at 37 °C. After the addition of 12.5 µL of a 0.5% MTT solution in PBS, the cells were incubated for 3 h at 37 °C so that the water-soluble MTT could be converted to formazan crystals. Then, the plates were centrifuged (300× g, 5 min, 4 °C), the medium withdrawn, and the formazan dissolved in 25 µL of DMSO containing 10% sodium dodecylsulfate (SDS) and 0.6% acetic acid for at least 2 h at 37 °C. In the case of the HL60 cells, after 2 h, the precipitate of formazan crystals was redissolved in a 10% solution of SDS in DMSO containing 0.6% acetic acid.
(§3) […] Afterward, 10 µL of a 5 mg/mL MTT solution in PBS was added to the cells for 3 h at 37 °C. Then, the spheres were centrifuged shortly to collect the cells on the bottom of the plate, and the medium was removed by careful pipetting for both adherently grown and floating sphere GBM cultures. Afterward, formazan was dissolved in a mixture (24:1 v:v) of isopropanol and 1 M HCl using 100 µL for adherent cells by shaking the plates for at least 20 min. The absorbance of formazan (λ = 570 nm), and background (λ = 630 nm) was measured with a microplate reader (Tecan Spark, Tecan Deutschland GmbH, Crailsheim, Germany).

[1] = test system: co-cultures of neuronal cells and U87 glioma cells; experiment: Co-culture of primary neurons and U87 glioma cells; format: cell-based, mouse / human; settings: 1 µM
Description: The selectivity of illudins 1 and 2 for U87 glioblastoma cells versus normal neuronal cells was evaluated by applying them to co-cultures of these cells serving as a surrogate brain tumor model. To this end, isolated murine primary neurons were grown on IBIDI dishes and after […] and the establishment of neuronal aggregates, the glioma U87 cells (~ 25,000 cells) were added to the neuronal culture. After 12 h, 1 and 2 were applied in 1 µM concentrations and the response of the different cells was monitored over a period between 15 and 48 h post incubation (Figure 8). In the control samples, the number of proliferating U87 cells increased with time and overgrew the diminishing number of differentiating neurons.
NE-4C cells derived from the anterior brain vesicles of p53-deficient 9-day-old mouse embryos were maintained in Minimum Essential Medium (MEM; Sigma Aldrich, Taufkirchen, Germany) supplemented with 5% fetal calf serum (FCS; Invitrogen-Gibco, Carlsbad, CA, USA), 4 mM glutamine (Sigma-Aldrich, Taufkirchen, Germany) and 40 ug/mL gentamycin (Chinoin, Budapest, Hungary). For maintenance, subconfluent cultures were regularly split by trypsinization (0.05 w/v% trypsin in PBS) into poly-L-lysine-coated Petri dishes. Primary astrocytes were isolated from whole brains of neonatal (P0-P3) mice, as described earlier. In brief, meninges were removed, and the tissue pieces were subjected to enzymatic dissociation, using 0.05% w/v trypsin and 0.05% w/v DNase for 10 min at room temperature. The cells were plated onto poly-L-lysine coated plastic surfaces and grown in MEM supplemented with 10% fetal calf serum, 4 mM glutamine and 40 ug/mL gentamycin. Primary neuronal cultures were prepared from embryonic (E15–E16) mouse (CD1) forebrains, as described earlier. In brief, cell suspensions were prepared by mechanical dissociation over a nylon mesh with a pore diameter of 40–42 μm. The cells were seeded at 10^5 cells/cm^2 density onto PLL-coated surfaces. The cultures were maintained in MEM supplemented with 5% FCS, 4 mM glutamine, 40 µg/mL gentamicin and 2.5 μg/mL amphotericin B (Sigma). In co-culture experiments, U87 glioma cells were seeded onto established neuronal cultures at DIV3 in a 25,000 cell/cm^2 density.
Figure 8 Co-culture of neuronal cells and U87 glioma cells in the absence or presence of 1 µM of 1 or 2. The neuronal aggregates are marked by arrowheads. Scale bar: 100 µm.

HL60 leukemia cells = experiment: MTT cell viability assay, HL60 leukemia; format: cell-based; settings: Homo sapiens, read-out: Inhibitory concentration IC50
Description: as §1
as §2, with “Then, they were treated with various concentrations of the test compounds or vehicle (DMSO, or EtOH) for 72 h at 37 °C.” left out

518A2 melanoma cells = experiment: MTT cell viability assay, 518A2 melanoma; format: cell-based; settings: Homo sapiens, read-out: Inhibitory concentration IC50
Description: as §1
as §2, with “Then, they were treated with various concentrations of the test compounds or vehicle (DMSO, or EtOH) for 72 h at 37 °C.” left out

MZ-54 glioblastoma cells = experiment: MTT cell viability assay, MZ-54 glioblastoma; format: cell-based; settings: Homo sapiens, read-out: Inhibitory concentration IC50
Description: U251 (formerly known as U-373 MG; ECACC 09063001), Mz54 (CVCL_M406) human glioblastoma cell lines were cultured in DMEM+GlutaMax supplemented with 10% fetal bovine serum and 1% penicillin/streptomycin mixture. The human glioma cell line Mz54 was obtained from the Dept. of Neurosurgery, University Medical Centre, Johannes Gutenberg University Mainz, Germany, where this line was isolated from a recurrent grade IV glioblastoma. U251 and Mz54 cells were used in passages between 10 and 25 after re-authentication and 40 to 55 after culture establishment, respectively. Only mycoplasma-free cell cultures were used.
as §3

[2] = test system: MCF-7^+Topo breast carcinoma cells; experiment: MTT cell viability assay, MCF-7+Topo breast carcinoma; format: cell-based; settings: Homo sapiens, MCF7/Topo, read-out: Inhibitory concentration IC50
Description: as §1
as §2, with “Then, they were treated with various concentrations of the test compounds or vehicle (DMSO, or EtOH) for 72 h at 37 °C.” left out

Compound | IC50 (C6 astrocytoma cells; C6, 24 h exposure) | IC50 (C6 astrocytoma cells; C6, 48 h exposure) | response of neurons and U87 cells in co-culture ([1]; 15 h after treatment) | response of neurons and U87 cells in co-culture ([1]; 48 h after treatment) | IC50 (HL60 leukemia cells; HL-60, HL60, 24 h exposure) | IC50 (HL60 leukemia cells; HL-60, HL60, 48 h exposure) | IC50 (518A2 melanoma cells; 518A2, 24 h exposure) | IC50 (518A2 melanoma cells; 518A2, 48 h exposure) | IC50 (MZ-54 glioblastoma cells; MZ-54, 48 h exposure) | IC50 ([2]; 24 h exposure) | IC50 ([2]; 48 h exposure) | IC50 (MZ-54 glioblastoma cells; MZ-54, 24 h exposure)
CC1=C(/C=C/C(C)=C/C=C/C(C)=C/C(=O)O[C@@H]2C3=C(C)C4(CC4)[C@@](C)(O)C(=O)C3=CC2(C)C)C(C)(C)CCC1 [Compound 2, illudin M retinoate] | 40000 ± 4000 nM | 12000 ± 1300 nM | healthy and compact neuronal aggregates | many neurons were still present | 6800 ± 2800 nM | 4500 ± 1100 nM | 5000 ± 300 nM | 4000 ± 700 nM | 5480 ± 1200 nM | 2500 ± 600 nM | 80 ± 10 nM | –
CC1=C2C(=CC(C)(C)[C@@H]2O)C(=O)[C@](C)(O)C12CC2 [Compound 1, illudin M] | 1000 ± 300 nM | 400 ± 60 nM | considerable cellular fragmentation | merely cell debris | 7 ± 2 nM | 1 nM | 40 ± 10 nM | 20 ± 10 nM | 60 ± 10 nM | 350 ± 130 nM | 50 ± 10 nM | 550 ± 160 nM
